Like-named read-outs stand apart in the source and are kept apart here. Numbered stars: 1 amine (or outer) side, 2 acyl side, 3 side chain; on linkers, the order of the positions; unused ones are H or OH. Square brackets hold non-standard residues; d marks the D form. Peptide text beside a SMILES is read from it. * marks the point of attachment. Tos = Cc1ccc(S(=O)(=O)*)cc1; CO = O=C([*:1])[*:2]
Columns and labels:
HCMV (Davis strain) = experiment: Anti-HCMV screening test: spread of cytopathogenic effect in HELF cell cultures; format: cell-based, human cytomegalovirus; settings: concentration causing 50% inhibition of the CPE, HELF cells, 6 days
Description: (§1) The anti-HCMV action was determined in a screening test system in 96-well microtitre plates with the aid of human embryonal lung fibroblasts (HELF) cell cultures. The influence of the substances on the spread of the cytopathogenic effect was determined in comparison with the reference substance ganciclovir ([…]®-sodium), a clinically approved anti-HCMV chemotherapeutic. The substances are dissolved in DMSO (dimethyl sulphoxide; 50 mM) and investigated on microtitre plates (96-well) in final concentrations of 1000-0.00048 μM (micromolar) in duplicate determinations (4 substances/plate). Toxic and cytostatic actions of the substances are also recorded here. After the appropriate dilutions of the substances (1:2) on the microtitre plate, a suspension of 50-100 HCMV-infected HELF cells and 3×10^4 non-infected HELF cells in Eagle's MEM (minimal essential medium) with 10% foetal calf serum is introduced into each cup and the plates are incubated at 37° C. in a CO2 incubating cabinet for 6 days. After this period, the cell lawn in the substance-free virus controls, starting from 50-100 infectious centres, is completely destroyed by the cytopathogenic effect (CPE) of the HCMV (100% CPE). After staining with neutral red and fixing with formalin/methanol, the plates are evaluated with the aid of a projection microscope (Plaque Viewer). […]

[1] = test system: human embryonal lung fibroblasts (HELF); experiment: Anticellular (toxic and cytostatic) action in the anti-HCMV screening test; format: cell-based
Description: as §1

HIV protease (HIV-1) = biological target: T1, HIV protease (HIV-1) (Human immunodeficiency virus type 1 group M subtype B, UniProt P04585); experiment: HIV-specific protease enzyme test (synthetic peptide cleavage, RP-HPLC); format: biochemical; settings: 50% inhibition of protease activity; purified HIV protease, synthetic Gag cleavage-site peptide
T1 construct: purified HIV protease was incubated with a synthetic peptide
Description: This is documented by an HIV-specific protease enzyme test.
The results of the examples described below were determined by the HIV test system described in the following literature references [compare Hansen, J., Billich, S., Schulze, T., Sukrow, S. and Molling, K. (1988), EMBO Journal, volume 7, No. 6, pages 1785-1791]: purified HIV protease was incubated with a synthetic peptide which imitates a cutting site in the Gag precursor protein and represents an in vivo cleavage site of HIV protease. The cleavage products formed from the synthetic peptide were analysed by reverse phase high performance liquid chromatography (RP-HPLC). The IC50 values stated relate to the substance concentration which causes 50% inhibition of protease activity under the abovementioned test conditions.

With `COC(=O)[C@H](Cc1ccccc1)NC(=O)N[C@@H](CCCNC(=N)NS(=O)(=O)c1ccc(C)cc1)C(=O)N[C@H](C(=O)N[C@@H](C=O)Cc1ccccc1)C(C)C` [Example 4] ({OMe-Phe-CO}-Arg(Tos)-Val-[dF]-aldehyde) the IC50 (HCMV (Davis strain)) was 1.95 µM and the “CIC50 (μM) HELF” value [1] was 62.5 µM.

With `Nc1nc(O)c2ncn(COC(CO)CO)c2n1` [Namevene ®, ganciclovir] the IC50 (HCMV (Davis strain); Human betaherpesvirus 5, 144 h) was 2 to 4 µM and the “CIC50 (μM) HELF” value ([1]; maximum concentration which displays no evident anticellular action, HELF cells, 6 days) was 125 µM.

Compound `CC(C)[C@H](NC(=O)[C@H](CCCNC(=N)N)NC(=O)N[C@@H](Cc1ccccc1)C(=O)O)C(=O)N[C@H](C=O)Cc1ccccc1` [VIII, (2S)-2-{Nα -[((1S)-1-Carboxy-2-phenyl-ethyl)aminocarbonyl]-S-arginyl-S-valinyl}amino-3-phenyl-propan-1-al] ({Phe-CO}-Arg-Val-Phe-aldehyde) has an IC50 (HIV protease (HIV-1)) of 19 µM.

Compound `CC(C)[C@H](NC(=O)[C@H](CCCNC(=N)N)NC(=O)N[C@@H](Cc1ccccc1)C(=O)O)C(=O)N[C@@H](C=O)Cc1ccccc1` [IX, (2R)-2-{Nα -[((1S)-1-Carboxy-2-phenyl-ethyl)aminocarbonyl]-S-arginyl-S-valinyl}amino-3-phenyl-propan-1-al] ({Phe-CO}-Arg-Val-[dF]-aldehyde) has an IC50 (HIV protease (HIV-1)) of 160 µM.

Source: US5492896A, “Pseudopeptides having an antiviral action” (Bayer Aktiengesellschaft, priority 1993, dated 1996)
